This is an account of results in publication PMC4282169 (Nature, 2014).

For the assay, the target named is T1, BoGH5A (Bacteroides ovatus, UniProt A7LXT7).
T1 sequence (A7LXT7 34-502 limits assumed): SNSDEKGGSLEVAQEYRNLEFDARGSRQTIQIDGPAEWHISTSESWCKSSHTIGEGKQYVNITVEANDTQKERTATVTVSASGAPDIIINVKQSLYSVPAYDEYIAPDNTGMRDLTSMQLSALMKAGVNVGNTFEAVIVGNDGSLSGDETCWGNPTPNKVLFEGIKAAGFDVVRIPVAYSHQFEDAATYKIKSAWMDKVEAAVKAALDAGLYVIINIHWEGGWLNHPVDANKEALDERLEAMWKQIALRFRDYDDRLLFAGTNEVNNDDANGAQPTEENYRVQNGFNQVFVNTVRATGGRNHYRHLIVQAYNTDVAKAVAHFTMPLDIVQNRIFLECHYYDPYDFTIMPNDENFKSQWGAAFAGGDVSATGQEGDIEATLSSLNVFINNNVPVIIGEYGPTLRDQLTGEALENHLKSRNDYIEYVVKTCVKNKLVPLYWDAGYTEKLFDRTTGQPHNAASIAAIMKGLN
The experiment in a line: 2-chloro-4-nitrophenolate release, A405, continuous. The class given is biochemical. Particulars: read-out: Km (mM) ^‡; 37 °C, 50 mM buffer at or near pH optimum (6.0-7.0).

Usually Km stands for the substrate concentration at which the rate is half of its maximum.

For `O=[N+]([O-])c1ccc(O[C@@H]2O[C@H](CO)[C@@H](O[C@@H]3O[C@H](CO[C@H]4OC[C@@H](O)[C@H](O)[C@H]4O[C@@H]4O[C@H](CO)[C@H](O)[C@H](O)[C@H]4O)[C@@H](O[C@@H]4O[C@H](CO[C@H]5OC[C@@H](O)[C@H](O)[C@H]5O[C@@H]5O[C@H](CO)[C@H](O)[C@H](O)[C@H]5O)[C@@H](O[C@@H]5O[C@H](CO[C@H]6OC[C@@H](O)[C@H](O)[C@H]6O)[C@@H](O)[C@H](O)[C@H]5O)[C@H](O)[C@H]4O)[C@H](O)[C@H]3O)[C@H](O)[C@H]2O)c(Cl)c1` [XLLG-β-CNP], the Michaelis constant (Km) is 0.145 ± 0.024 mM.
